Source: ChEMBL document CHEMBL5360653, “Marine Alkaloid Lepadins E and H Induce Ferroptosis for Cancer Chemotherapy” (J Med Chem, 2023)
Activity calls are given as the source filed them. No cut-off for these calls is given here.

How the values were obtained:
HeLa [1] = test: Cytotoxicity against human HeLa cells incubated for 72 hrs by MTT assay; assay type: functional, cell-based
SMMC-7721 = test: Cytotoxicity against human SMMC-7721 cells incubated for 72 hrs by MTT assay; assay type: functional, cell-based; details: SMMC-7721, 72 h
A549 = test: Cytotoxicity against human A549 cells incubated for 72 hrs by MTT assay; assay type: functional, cell-based; details: A549, 72 h
MCF7 = test: Cytotoxicity against human MCF7 cells incubated for 72 hrs by MTT assay; assay type: functional, cell-based; details: MCF7, 72 h
SH-SY5Y = test: Cytotoxicity against human SH-SY5Y cells incubated for 72 hrs by MTT assay; assay type: functional, cell-based
HepG2 = test: Cytotoxicity against human HepG2 cells incubated for 72 hrs by MTT assay; assay type: functional, cell-based; details: HepG2, 72 h
NCI-H1155 = test: Cytotoxicity against human NCI-H1155 cells incubated for 72 hrs by MTT assay; assay type: functional, cell-based; details: NCI-H1155, 72 h
SK-OV-3 = test: Cytotoxicity against human SK-OV-3 cells incubated for 72 hrs by MTT assay; assay type: functional, cell-based; details: SK-OV-3, 72 h
MDA-MB-231 = test: Cytotoxicity against human MDA-MB-231 cells incubated for 72 hrs by MTT assay; assay type: functional, cell-based; details: MDA-MB-231, 72 h
NCI-H1355 = test: Cytotoxicity against human NCI-H1355 cells incubated for 72 hrs by MTT assay; assay type: functional, cell-based; details: NCI-H1355, 72 h
L02 = test: Cytotoxicity against human L02 cells incubated for 72 hrs by MTT assay; assay type: functional, cell-based; details: L02, 72 h
HeLa [2] = test: Inhibition of colony formation in human HeLa cells treated for 24 hrs measured by paraformaldehyde based crystal violet staining analysis; assay type: functional, cell-based; details: dose 5-9 µM
HeLa [3] = test: Inhibition of colony migration in human HeLa cells treated for 24 hrs measured by paraformaldehyde based crystal violet staining analysis; assay type: functional, cell-based; details: dose 0.625-10 µM
HeLa [4] = test: Inhibition of colony formation in human HeLa cells treated at 9 uM for 24 hrs measured by paraformaldehyde based crystal violet staining analysis; assay type: functional, cell-based
HeLa [5] = test: Inhibition of colony formation in human HeLa cells treated upto 6 uM for 24 hrs measured by paraformaldehyde based crystal violet staining analysis; assay type: functional, cell-based
HeLa [6] = test: Induction of apoptosis in human HeLa cells assessed as increase in cleaved PARP expression level at 10 uM by immunoblotting analysis; assay type: functional, cell-based
HeLa [7] = test: Induction of apoptosis in human HeLa cells assessed as apoptotic cells incubated at 10 uM for 24 hrs measured by annexin V-PI staining based FITC analysis (Rvb ~ 5%); assay type: functional
HeLa [8] = test: Induction of apoptosis in human HeLa cells assessed as viable cells incubated at 4 uM for 24 hrs measured by annexin V-PI staining based FITC analysis (reference value: 93.9%); assay type: functional; details: read-out: Activity
HeLa [9] = test: Induction of apoptosis in human HeLa cells assessed as viable cells incubated at 6 uM for 24 hrs measured by annexin V-PI staining based FITC analysis (reference value: 93.9%); assay type: functional; details: read-out: Activity
HeLa [10] = test: Induction of apoptosis in human HeLa cells assessed as viable cells incubated at 8 uM for 24 hrs measured by annexin V-PI staining based FITC analysis (reference value: 93.9%); assay type: functional; details: read-out: Activity
HeLa [11] = test: Induction of apoptosis in human HeLa cells assessed as viable cells incubated at 10 uM for 24 hrs measured by annexin V-PI staining based FITC analysis (reference value: 93.9%); assay type: functional; details: read-out: Activity
HeLa [12] = test: Induction of apoptosis in human HeLa cells assessed as early apoptotic cells incubated at 6 uM for 24 hrs measured by annexin V-PI staining based FITC analysis (reference value: 3.59%); assay type: functional
HeLa [13] = test: Upregulation of p53 expression in human HeLa cells measured at 4 to 10 uM for 24 hrs by Western blotting analysis; assay type: functional, cell-based; details: dose 4-10 µM
HeLa [14] = test: Upregulation of p21 expression in human HeLa cells measured at 4 to 10 uM for 24 hrs by Western blotting analysis; assay type: functional, cell-based; details: dose 4-10 µM
HeLa [15] = test: Induction of apoptosis in human HeLa cells assessed as necrotic cells preincubated with PFTalpha followed by compound addition at 10 uM for 24 hrs measured by annexin V-PI staining based FITC analysis (reference value: 0.79%); assay type: functional
HeLa [16] = test: Induction of ROS generation in human HeLa cells assessed as increase in ROS level; assay type: functional, cell-based; details: dose 4-10 µM
HeLa [17] = test: Induction of ROS generation in human HeLa cells assessed as increase in ROS level at 6 to 10 uM; assay type: functional, cell-based; details: dose 6-10 µM
HeLa [18] = test: Induction of ROS generation in human HeLa cells assessed as increase in ROS level at 10 uM incubated for 1 hrs (reference value: 39.6%); assay type: functional
HeLa [19] = test: Cytotoxicity against human HeLa cells assessed as increase in cell viability pretreated with NAC for 1 hr followed by compound addition at 2.5 to 20 uM for 24 hrs relative to control; assay type: functional; details: dose 2.5-20 µM
HeLa [20] = test: Effect on lipid peroxidation in human HeLa cells measured at 10 to 12 uM for 4 hrs by C11-BODIPY581/591 staining based flow cytometric analysis relative to control; assay type: functional; details: dose 10-12 µM
HeLa [21] = test: Cytotoxicity against human HeLa cells assessed as increase in cell viability pretreated with Ferrostatin-1 for 4 hrs followed by compound addition at 10 uM for 24 hrs; assay type: functional, cell-based
HeLa [22] = test: Cytotoxicity against human HeLa cells assessed as increase in cell viability pretreated with DFO for 4 hrs followed by compound addition at 10 uM for 24 hrs; assay type: functional, cell-based
HeLa [23] = test: Induction of ferroptosis in human HeLa cells assessed as decrease in cellular GSH level measured at 4 uM for 24 hrs by transmission electron microscopic analysis; assay type: functional, cell-based
HeLa [24] = test: Induction of ferroptosis in human HeLa cells assessed as downregulation of SLC7A11 level measured at 4 to 10 uM for 24 hrs by Western blotting analysis; assay type: functional, cell-based; details: dose 4-10 µM
B16-F10 [25] = test: Cytotoxicity against mouse B16-F10 cells incubated for 72 hrs by MTT assay; assay type: functional, cell-based; details: B16-F10, 72 h
B16-F10 [26] = test: Induction of ferroptosis in mouse B16-F10 cells assessed as downregulation of SLC7A11 level measured at 4 to 10 uM by Western blotting analysis; assay type: functional, cell-based; details: dose 4-10 µM
[27] = Toxicity in immunocompetent C57BL/6J mouse allografted with B16-F10 cells assessed as tissue damage in heart administered at 30 mg/kg, ip daily for 14 days by hematoxylin and eosin staining analysis; assay type: organism-based; details: in vivo, 336 h, time 14 day
[28] = Toxicity in immunocompetent C57BL/6J mouse allografted with B16-F10 cells assessed as tissue damage in kidney administered at 30 mg/kg, ip daily for 14 days by hematoxylin and eosin staining analysis; assay type: organism-based; details: in vivo, 336 h, time 14 day
[29] = Toxicity in immunocompetent C57BL/6J mouse allografted with B16-F10 cells assessed as tissue damage in lungs administered at 30 mg/kg, ip daily for 14 days by hematoxylin and eosin staining analysis; assay type: organism-based; details: in vivo, 336 h, time 14 day
HeLa [30] = test: Induction of apoptosis in human HeLa cells assessed as necrotic cells incubated at 8 uM for 24 hrs measured by annexin V-PI staining based FITC analysis (reference value: 0.58%); assay type: functional
HeLa [31] = test: Induction of apoptosis in human HeLa cells assessed as necrotic cells incubated at 10 uM for 24 hrs measured by annexin V-PI staining based FITC analysis (reference value: 1.6%); assay type: functional

Row | SMILES | IC50 (HeLa [1]) | IC50 (SMMC-7721) | IC50 (A549) | IC50 (MCF7) | IC50 (SH-SY5Y) | IC50 (HepG2) | IC50 (NCI-H1155) | IC50 (SK-OV-3) | IC50 (MDA-MB-231) | IC50 (NCI-H1355) | IC50 (L02) | inhibition (HeLa [2]) | inhibition (HeLa [3]) | inhibition (HeLa [4]) | inhibition (HeLa [5]) | Activity (HeLa [6]) | Activity (HeLa [7]) | viability at 4 µM (HeLa [8]) | viability at 6 µM (HeLa [9]) | viability at 8 µM (HeLa [10]) | other results
1 | CCC/C=C/C=C/C(=O)O[C@@H]1C[C@H]2[C@@H](CCCC[C@H](O)CCC)CCC[C@H]2N[C@H]1C | 2.52 µM | 4.09 µM | 4.68 µM | 5.03 µM | 5.8 µM | 6.2 µM | 7.06 µM | 8.02 µM | 8.51 µM | 9.3 µM | 12.5 µM | Dose-Dependent Effect | Dose-Dependent Effect | Active | inactive | Active | ~70% | 91.8% | 88.4% | 76.1% | viability at 10 µM (HeLa [11]): 26.1%; Activity (HeLa [12]): 6.71%; Activity (HeLa [13]): Active; Activity (HeLa [14]): Active; Activity (HeLa [15]): 3.94%; Activity (HeLa [16]): Dose-Dependent Effect; Activity (HeLa [17]): Active; Activity (HeLa [18]): 81.5%; Activity (HeLa [19]): 5%; Activity (HeLa [20]): 10%; Activity (HeLa [21]): Not toxic; Activity (HeLa [22]): Not toxic; Activity (HeLa [23]): Active; Activity (HeLa [24]): Active; IC50 (B16-F10 [25]): 3.14 µM; Activity (B16-F10 [26]): Active; Activity [27]: Non-Toxic; Activity [28]: Non-Toxic; Activity [29]: Non-Toxic
2 | CCCCC/C=C/C(=O)O[C@@H]1C[C@H]2[C@@H](CCCC[C@H](O)CCC)CCC[C@H]2N[C@H]1C | 2.67 µM | 3.93 µM | 5.93 µM | 5.95 µM | 6.19 µM | 6.2 µM | 7.88 µM | 7.94 µM | 8.04 µM | 8.8 µM | 18.7 µM | Dose-Dependent Effect | Dose-Dependent Effect | Active | inactive | Active | ~50% | 91.4% | 65% | 52.2% | Activity (HeLa [30]): 3.09%; viability at 10 µM (HeLa [11]): 45.3%; Activity (HeLa [13]): Active; Activity (HeLa [14]): Active; Activity (HeLa [31]): 5.06%; Activity (HeLa [16]): Dose-Dependent Effect; Activity (HeLa [19]): 5%; Activity (HeLa [20]): 10%; Activity (HeLa [21]): Not toxic; Activity (HeLa [22]): Not toxic
